In patent US7408067B2, “Aza-cyclic compounds as modulators of acetylcholine receptors” (Merck + Co., Inc., priority 2002, dated 2008):
Where a name gives a salt, the structure may show the parent alone.

| melting point [°C] | Compound |
| --- | --- |
| 96 to 98 | CN1CCC(Sc2ccc(N)cc2)CC1 (as salt: hydrochloride) [Example 5, 4-(1-methylpiperidin-4-yl)thiophenylamine] |
| 199 to 201 | CC(=O)Nc1ccc(SC2CCN(C)CC2)cc1 (as salt: salt) [Example 7, N-{4-[(1-methylpiperidin-4-yl)thio]phenyl}acetamide] |
| 196.4 to 197.6 | CN1CCC(Sc2ccc3[nH]c(=O)n(C)c3c2)CC1 [Example 18, 1-Methyl-6-[(1-methyl-4-piperidinyl)sulfanyl]-1,3-dihydro-2H-benzimidazol-2-one] |

More lines, now with the values behind:

| Compound | melting point [°C] |
| --- | --- |
| CN1CCC(Sc2ccc3[nH]c(=O)[nH]c3c2)CC1 [Example 16, 5-[(1-methyl-4-piperidinyl)sulfanyl]-1,3-dihydro-2H-benzimidazol-2-one] | 213.8 to 214.7 |
| CN1CCC(Sc2ccc3[nH]c(=O)[nH]c(=O)c3c2)CC1 [Example 17, 6-[(1-methyl-4-piperidinyl)sulfanyl]-2,4(1H,3H)-quinazolinedione] | > 260 |
| CN1CCC(Sc2cc3c(cc2Cl)[nH]c(=O)n3C)CC1 [Example 20, 5-Chloro-1-methyl-6-[(1-methyl-4-piperidinyl)sulfanyl]-1,3-dihydro-2H-benzimidazol-2-one] | 210.2 to 211.9 |
| CN1CCC(Sc2ccc3[nH]c(=O)n(C)c(=O)c3c2)CC1 [Example 21, 3-Methyl-6-[(1-methyl-4-piperidinyl)sulfanyl]-2,4(1H,3H)-quinazolinedione] | 200.8 to 202.6 |
